Data on six compounds can be found in patent US10294202B2, “Pyrrolidinones as herbicides” (FMC Corporation, priority 2013, dated 2019).

The test system of one test is morningglory. Nature of the test: Test A pre-/postemergence herbicide test. It counts as in vivo, Ipomoea spp. The conditions noted are these: for Morningglory plant response rating: Preemergence, visual rating on 0 to 100 scale (0 no effect, 100 complete control). A digest of the protocol: (§1)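 Visual 0–100 ratings (100 = complete control) made about 10 days after treatment, greenhouse-held plants compared with untreated controls. Treatments: postemergence sprays on one- to two-leaf plants (2–10 cm tall) and preemergence directed soil sprays after planting in loam–sand, chemicals formulated in non-phytotoxic solvent containing surfactant.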

For the next test, the system named is velvetleaf. Nature of the test: Test A pre-/postemergence herbicide test. It counts as in vivo, Abutilon theophrasti. A digest of the protocol:
as §1

A further test concerns chickweed. Nature of the test: Test C postemergence herbicide test. It is filed as in vivo, Stellaria media. An excerpt: At the same time, plants selected from these crop and weed species and also barley (winter barley, Hordeum vulgare), […]), chickweed (common chickweed, Stellaria media), deadnettle (henbit deadnettle, Lamium amplexicaule), and canarygrass (littleseed canarygrass, Phalaris minor) were planted in pots containing Redi-Earth® planting medium (Scotts Company, 14111 Scottslawn Road, Marysville, Ohio 43041) comprising spaghnum peat moss, vermiculite, wetting agent and starter nutrients and treated with postemergence applications of test chemicals formulated in the same manner. Plants ranged in height from 2 to 18 cm (1- to 4-leaf stage) for postemergence treatments. Treated plants and controls were maintained in a greenhouse for 13 to 15 days, after which time all species were compared to controls and visually evaluated. Plant response ratings, summarized in Table C, are based on a scale of 0 to 100 where 0 is no effect and 100 is complete control. A dash (-) response means no test result.

The next test relates to crabgrass, large. Nature of the test: Test A pre-/postemergence herbicide test. It is filed as in vivo, Digitaria sanguinalis. A digest of the protocol: as §1
The test system of a further test is ryegrass, Italian. The test is described as follows: Test A pre-/postemergence herbicide test. It counts as in vivo, Lolium multiflorum. In a few lines: as §1
For a further test, the system named is ducksalad. Nature of the test: Test C flooded paddy test. It counts as in vivo, Heteranthera limosa. As to conditions: Flood, scale of 0 to 100 where 0 is no effect and 100 is complete control, 13 to 15 days. A digest of the protocol:
(§2)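 Visual injury scored against controls after 13 to 15 days in the greenhouse, using 0 (no effect) to 100 (complete control). Test compounds went straight into paddy water held 3 cm above the soil surface on 2-leaf-stage plants, with that flood depth maintained for the whole test.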

For a further test, the system named is kochia. Nature of the test: Test A pre-/postemergence herbicide test. It is filed as in vivo, Kochia scoparia. A digest of the protocol:
as §1

A further test deals with galium. Nature of the test: Test A postemergence herbicide test. It counts as in vivo, Galium aparine. A digest of the protocol:
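Ratings compare treated with untreated plants roughly 10 days after a postemergence application made at the one- to two-leaf stage. Scoring uses 0–100, where 0 means no effect and 100 complete control.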

The subject of another test is ragweed. Nature of the test: Test A pre-/postemergence herbicide test. It counts as in vivo, Ambrosia elatior. In a few lines:
as §1

For a further test, the system named is sedge, umbrella. Nature of the test: Test C flooded paddy test. It is filed as in vivo, Cyperus difformis. The conditions noted are these: Flood, scale of 0 to 100 where 0 is no effect and 100 is complete control, 13 to 15 days. In a few lines:
as §2

Setting [1] is: Postemergence, 1000 g ai/ha, 0 to 100 scale (0 no effect, 100 complete control).
Setting [2] is: Preemergence, 1000 g ai/ha, visual rating on 0 to 100 scale (0 no effect, 100 complete control), approx. 10 days.
Where [3] appears, read: 31 g ai/ha, scale 0 (no effect) to 100 (complete control).
Where [4] appears, read: 62 g ai/ha, scale 0 to 100 (0 no effect, 100 complete control).
Setting [5] is: 125 g ai/ha, scale 0 to 100 (0 no effect, 100 complete control).
Setting [6] is: 250 g ai/ha, scale 0 to 100 (0 no effect, 100 complete control).
The mark [7] stands for this setting: Postemergence, 125 g ai/ha, 0 to 100 scale, 0 no effect, 100 complete control.
[8] abbreviates: Postemergence, 500 g ai/ha, 0 to 100 scale (0 no effect, 100 complete control).
Where [9] appears, read: preemergence, 500 g ai/ha, 0 to 100 scale.
[10] abbreviates: Preemergence, 125 g ai/ha, visual rating on 0 to 100 scale (0 no effect, 100 complete control).
The mark [11] stands for this setting: Postemergence, 125 g ai/ha, visual rating on 0 to 100 scale (0 no effect, 100 complete control), approx. 10 days.
Where [12] appears, read: Preemergence, 125 g ai/ha, 0 to 100 scale where 0 is no effect and 100 is complete control.
The mark [13] stands for this setting: Preemergence, 500 g ai/ha, visual rating on 0 to 100 scale (0 no effect, 100 complete control).
The mark [14] stands for this setting: 125 g ai/ha, visual rating on 0 to 100 scale (0 no effect, 100 complete control), approx. 10 days.
[15] abbreviates: 500 g ai/ha, 0 to 100 scale (0 no effect, 100 complete control).

In the case of `O=C1NCC(c2cc(F)c(F)c(F)c2)C1C(=O)Nc1ccccc1F` (racemic) [Compound 34], in the test with morningglory (setting [1]), the “Plant response rating, Morningglory” value is 20. The results for the “Plant response rating, Velvetleaf” value in the test on velvetleaf (setting [1]) and in the test with velvetleaf (setting [2]) were 20 and 0, respectively. In addition, the “Plant response rating, Chickweed” value is 0 with chickweed (setting [3]), 0 in the test with chickweed (setting [4]), 5 in the test on chickweed (setting [5]) and 5 in the test with chickweed (setting [6]). Besides, the “Plant response rating, Crabgrass, Large” value in the test with crabgrass, large (setting [1]) worked out at 90; in the test with crabgrass, large (setting [2]) it was 90.

Take `O=C1NCC(c2ccc(F)c(C(F)(F)F)c2)C1C(=O)Nc1ccccc1F` (racemic) [Compound 76]: the figures for the “Plant response rating, Morningglory” value in the test with morningglory (setting [7]), in the test on morningglory (setting [8]) and in the test on morningglory (setting [9]) were 20, 40 and 50, respectively. The “Morningglory plant response rating” value in the test with morningglory (125 g ai/ha) is on record as 0. Also, the “Plant response rating, Velvetleaf” value in the test with velvetleaf (setting [7]) was 20; in the test on velvetleaf (setting [8]), 60; in the test on velvetleaf (setting [9]), 0. Also, in the test with velvetleaf (setting [10]), the “Velvetleaf plant response rating” value worked out at 0. Besides, the “Plant response rating, Chickweed” value with chickweed (setting [3]) stood at 40; in the test on chickweed (setting [4]) it was 40; in the test on chickweed (setting [5]), 65; in the test with chickweed (setting [6]), 80. Besides, the “Plant response rating, Crabgrass, Large” value in the test with crabgrass, large (setting [7]) was determined as 90; with crabgrass, large (setting [8]) it was 90; with crabgrass, large (setting [9]), 90. Also, the “Crabgrass, Large plant response rating” value with crabgrass, large (setting [10]) amounted to 90.

Take `O=C1NCC(c2ccccc2)C1C(=O)Nc1ccccc1F` (racemic) [Compound 81]: the “Plant response rating, Morningglory” value with morningglory (setting [7]) is given as 0; in the test with morningglory (setting [8]), 0; with morningglory (setting [9]), 20. Besides, in the test on morningglory (125 g ai/ha), the “Morningglory plant response rating” value was determined as 0. In addition, the “Plant response rating, Velvetleaf” value in the test with velvetleaf (setting [7]), in the test on velvetleaf (setting [8]) and with velvetleaf (setting [9]) was 0 in each case. In addition, the “Velvetleaf plant response rating” value in the test with velvetleaf (setting [10]) is recorded as 0. The “Plant response rating, Chickweed” value with chickweed (setting [3]), with chickweed (setting [4]), in the test with chickweed (setting [5]) and in the test with chickweed (setting [6]) was 0 in each case. For the same compound, the “Plant response rating, Crabgrass, Large” value in the test on crabgrass, large (setting [7]) came out at 50; in the test on crabgrass, large (setting [8]) it was 80; with crabgrass, large (setting [9]), 90. Besides, the “Crabgrass, Large plant response rating” value in the test on crabgrass, large (setting [10]) amounted to 80.

For the compound `O=C1NCC(c2cccc(C(F)(F)F)c2)C1C(=O)Nc1ccccc1Cl` (centres unmarked) [Compound 312], the “Plant response rating, Ryegrass, Italian” value stood at 20 in the test with ryegrass, Italian (setting [11]); 40 in the test with ryegrass, Italian (setting [8]); 20 with ryegrass, Italian (setting [12]). Also, the “Ryegrass, Italian plant response rating” value with ryegrass, Italian (setting [13]) is recorded as 60. For the same compound, the “Plant response rating, Ducksalad” value in the test on ducksalad (31 g ai/ha) worked out at 50; with ducksalad (62 g ai/ha) it was 60; in the test with ducksalad (125 g ai/ha) it was 65; in the test with ducksalad (250 g ai/ha), 95. The “Plant response rating, Kochia” value in the test on kochia (setting [11]) came to 20; with kochia (setting [8]), 40; in the test on kochia (setting [12]), 20. In addition, the “Kochia plant response rating” value in the test on kochia (setting [13]) was 70. The “Plant response rating, Galium” value in the test with galium (setting [14]) is reported as 30; with galium (setting [15]), 50. Also, the results for the “Plant response rating, Ragweed” value in the test on ragweed (setting [11]), with ragweed (setting [8]) and in the test with ragweed (setting [12]) were 20, 40 and 0, respectively. For the same compound, the “Ragweed plant response rating” value in the test with ragweed (setting [13]) was found to be 30. Further, the “Plant response rating, Sedge, Umbrella” value worked out at 0 in the test on sedge, umbrella (31 g ai/ha); 0 in the test on sedge, umbrella (62 g ai/ha); 0 with sedge, umbrella (125 g ai/ha); 0 in the test with sedge, umbrella (250 g ai/ha).

With `Cc1cccc(NC(=O)C2C(=O)NCC2c2cccc(C(F)(F)F)c2)c1` (centres unmarked) [Compound 317], the “Plant response rating, Ryegrass, Italian” value with ryegrass, Italian (setting [11]) is on record as 0; with ryegrass, Italian (setting [8]), 0; with ryegrass, Italian (setting [12]), 0. In the test on ryegrass, Italian (setting [13]), the “Ryegrass, Italian plant response rating” value was 0. In addition, the “Plant response rating, Ducksalad” value with ducksalad (31 g ai/ha), with ducksalad (62 g ai/ha), with ducksalad (125 g ai/ha) and in the test with ducksalad (250 g ai/ha) was 0 each time. The “Plant response rating, Kochia” value in the test on kochia (setting [11]), with kochia (setting [8]) and in the test on kochia (setting [12]) was 0 throughout. Also, in the test on kochia (setting [13]), the “Kochia plant response rating” value was determined as 0. The “Plant response rating, Galium” value with galium (setting [14]) and in the test with galium (setting [15]) was 0 in each case. Moreover, the “Plant response rating, Ragweed” value in the test on ragweed (setting [11]), with ragweed (setting [8]) and with ragweed (setting [12]) was 0 in each case. Further, in the test on ragweed (setting [13]), the “Ragweed plant response rating” value stood at 0. Also, the “Plant response rating, Sedge, Umbrella” value with sedge, umbrella (31 g ai/ha) is given as 0; in the test with sedge, umbrella (62 g ai/ha), 0; with sedge, umbrella (125 g ai/ha), 0; in the test on sedge, umbrella (250 g ai/ha), 0.

`O=C1NCC(c2cccc(OC(F)F)c2)C1C(=O)Nc1cccc(F)c1F` (centres unmarked) [Compound 324]: the “Plant response rating, Ryegrass, Italian” value in the test with ryegrass, Italian (setting [11]) is given as 30; in the test with ryegrass, Italian (setting [8]) it was 50; with ryegrass, Italian (setting [12]), 30. The “Ryegrass, Italian plant response rating” value in the test with ryegrass, Italian (setting [13]) stood at 40. The “Plant response rating, Ducksalad” value in the test with ducksalad (31 g ai/ha) is listed as 40; in the test with ducksalad (62 g ai/ha), 70; in the test on ducksalad (125 g ai/ha), 95; in the test on ducksalad (250 g ai/ha) it was 100. The “Plant response rating, Kochia” value was 50 in the test on kochia (setting [11]), 80 in the test on kochia (setting [8]) and 70 in the test with kochia (setting [12]). The “Kochia plant response rating” value in the test on kochia (setting [13]) amounted to 80. Moreover, the entries for the “Plant response rating, Galium” value in the test with galium (setting [14]) and with galium (setting [15]) were 40 and 60, respectively. Besides, the “Plant response rating, Ragweed” value in the test with ragweed (setting [11]) came to 20; in the test on ragweed (setting [8]), 50; in the test with ragweed (setting [12]), 30. Besides, in the test on ragweed (setting [13]), the “Ragweed plant response rating” value was found to be 60. Also, the “Plant response rating, Sedge, Umbrella” value with sedge, umbrella (31 g ai/ha) is reported as 0; in the test with sedge, umbrella (62 g ai/ha) it was 0; in the test on sedge, umbrella (125 g ai/ha), 0; with sedge, umbrella (250 g ai/ha), 0.
